Assays:
[1] = Selectivity index, ratio of IC50 for rat L6 cells to IC50 for Trypanosoma cruzi Tulahuen C2C4; type: toxicity, cell-based; settings: read-out: Ratio IC50
[2] = test system: Trypanosoma brucei rhodesiense; experiment: Antiprotozoal activity against Trypanosoma brucei rhodesiense STIB900; type: functional, organism-based
Plasmodium falciparum = experiment: Antiprotozoal activity against chloroquine and pyrimethamine-resistant Plasmodium falciparum K1; type: functional, organism-based
[3] = Selectivity index, ratio of IC50 for rat L6 cells to IC50 for Trypanosoma brucei rhodesiense STIB900; type: toxicity, cell-based; settings: read-out: Ratio IC50
L6 = experiment: Cytotoxicity against rat L6 cells; type: cell-based
[4] = Selectivity index, ratio of IC50 for rat L6 cells to IC50 for chloroquine and pyrimethamine-resistant Plasmodium falciparum K1; type: toxicity, cell-based; settings: read-out: Ratio IC50
Leishmania donovani = experiment: Antiprotozoal activity against Leishmania donovani MHOMET-67/L82; type: functional, organism-based
Trypanosoma cruzi = experiment: Antiprotozoal activity against Trypanosoma cruzi Tulahuen C2C4; type: functional, organism-based
[5] = Selectivity index, ratio of IC50 for rat L6 cells to IC50 for Leishmania donovani MHOMET-67/L82; type: toxicity, cell-based; settings: read-out: Ratio IC50

| SMILES | selectivity ratio [1] | IC50 [2] [nM] | IC50 (Plasmodium falciparum) [nM] | selectivity ratio [3] | IC50 (L6) [nM] | selectivity ratio [4] | IC50 (Leishmania donovani) [nM] | IC50 (Trypanosoma cruzi) [nM] | selectivity ratio [5] |
| --- | --- | --- | --- | --- | --- | --- | --- | --- | --- |
| CN1/C(=C/C=C/C=C/c2sc3ccccc3[n+]2C)Sc2ccccc21 | 29.9 | 13 | 133 | 137 | 1790 | 13.5 | 140 | 60 | 12.7 |
| CN1/C(=C/C=C/C=C/c2sc3ccc(Cl)cc3[n+]2C)Sc2ccc(Cl)cc21 | 0.3 | 8 | 63 | 106 | 876 | 13.9 | 75 | 2630 | 11.8 |
| CN1/C(=C/C=C/C=C/c2sc3ccc(F)cc3[n+]2C)Sc2ccc(F)cc21 | 1.1 | 2 | 228 | 1190 | 2080 | 9.2 | 188 | 1960 | 11.1 |

Source: ChEMBL document CHEMBL3217673, “Synthesis of cyanine dyes and investigation of their in vitro antiprotozoal activities” (Medchemcomm, 2012)
